Laboratory results reported in patent publication US9511058B2, “Methods for using carboxamide, sulfonamide and amine compounds” (Rigel Pharmaceuticals, Inc., priority 2010, dated 2016).

Biological target: AMPK
Assay: AMPK activation, enzyme-linked immunosorbent assay
Assay type: biochemical
[1] = compounds of Table 5 (Table 10)

EC50 [1] [nM]	Compound	further results
	O=C(NC1CCN(Cc2ccc(C(F)(F)F)cc2)CC1)c1ccc2c(c1)CN(Cc1ccc(F)cc1)CC2 [3-36, 2-(4-fluorobenzyl)-N-(1-(4-(trifluoromethyl)benzyl)piperidin-4-yl)-1,2,3,4-tetrahydroisoquinoline-7-carboxamide]	EC50 (compounds of Table 3 (Table 8)): 100 to 1000 nM
	N#Cc1ccc(CN2CCC(NC(=O)c3ccc4c(c3)CN(Cc3ccc(C#N)cc3)CC4)CC2)cc1 [3-37, 2-(4-cyanobenzyl)-N-(1-(4-cyanobenzyl)piperidin-4-yl)-1,2,3,4-tetrahydroisoquinoline-7-carboxamide]	EC50 (compounds of Table 3 (Table 8)): < 100 nM
	N#Cc1ccc(CN2CCc3ccc(C(=O)NC4CCN(Cc5cccnc5)CC4)cc3C2)cc1 [3-38, 2-(4-cyanobenzyl)-N-(1-(pyridin-3-ylmethyl)piperidin-4-yl)-1,2,3,4-tetrahydroisoquinoline-7-carboxamide]	EC50 (compounds of Table 3 (Table 8)): < 100 nM
	N#Cc1ccc(CN2CCc3ccc(C(=O)NC4CCN(Cc5ccc(C(F)(F)F)cc5)CC4)cc3C2)cc1 [3-39, 2-(4-cyanobenzyl)-N-(1-(4-(trifluoromethyl)benzyl)piperidin-4-yl)-1,2,3,4-tetrahydroisoquinoline-7-carboxamide]	EC50 (compounds of Table 3 (Table 8)): 1000 to 10000 nM
	N#Cc1ccc(CN2CCC(NC(=O)c3ccc(C(=O)N4CCN(Cc5ccc(C#N)cc5)CC4)cn3)CC2)cc1 [4-1, 5-(4-(4-cyanobenzyl)piperazine-1-carbonyl)-N-(1-(4-cyanobenzyl)piperidin-4-yl)picolinamide]	EC50 (compounds of Table 4 (Table 9)): < 500 nM
	N#Cc1ccc(CN2CCC(NC(=O)c3ccc(C(=O)N4CCN(Cc5ccc(F)cc5)CC4)cn3)CC2)cc1 [4-2, N-(1-(4-cyanobenzyl)piperidin-4-yl)-5-(4-(4-fluorobenzyl)piperazine-1-carbonyl)picolinamide]	EC50 (compounds of Table 4 (Table 9)): < 500 nM
	N#Cc1ccc(CN2CCC(NC(=O)c3ccc(C(=O)N4CCN(Cc5ccc(C(F)(F)F)cc5)CC4)cn3)CC2)cc1 [4-3, N-(1-(4-cyanobenzyl)piperidin-4-yl)-5-(4-(4-(trifluoromethyl)benzyl)piperazine-1-carbonyl)picolinamide]	EC50 (compounds of Table 4 (Table 9)): < 500 nM
	O=C(N[C@H]1CCN(Cc2ccc(F)cc2)C1)c1ccc(C(=O)N2CCN(c3ccc(Cl)cc3)CC2)cn1 [4-4, (S)-5-(4-(4-chlorophenyl)piperazine-1-carbonyl)-N-(1-(4-fluorobenzyl)pyrrolidin-3-yl)picolinamide]	EC50 (compounds of Table 4 (Table 9)): 1000 to 5000 nM
	O=C(N[C@H]1CCN(Cc2ccncc2)C1)c1ccc(C(=O)N2CCN(c3ccc(Cl)cc3)CC2)cn1 [4-5, (S)-5-(4-(4-chlorophenyl)piperazine-1-carbonyl)-N-(1-(pyridin-4-ylmethyl)pyrrolidin-3-yl)picolinamide]	EC50 (compounds of Table 4 (Table 9)): 1000 to 5000 nM
	N#Cc1ccc(CN2CC[C@H](NC(=O)c3ccc(C(=O)N4CCN(c5ccc(Cl)cc5)CC4)cn3)C2)cc1 [4-6, (S)-5-(4-(4-chlorophenyl)piperazine-1-carbonyl)-N-(1-(4-cyanobenzyl)pyrrolidin-3-yl)picolinamide]	EC50 (compounds of Table 4 (Table 9)): 500 to 1000 nM
	O=C(N[C@H]1CCN(Cc2ccc(Cl)cc2)C1)c1ccc(C(=O)N2CCN(c3ccc(Cl)cc3)CC2)cn1 [4-7, N-(1-(4-chlorobenzyl)pyrrolidin-3-yl)-5-(4-(4-chlorophenyl)piperazine-1-carbonyl)picolinamide]	EC50 (compounds of Table 4 (Table 9)): 1000 to 5000 nM
	O=C(N[C@H]1CCN(Cc2ccc(C(F)(F)F)cc2)C1)c1ccc(C(=O)N2CCN(c3ccc(Cl)cc3)CC2)cn1 [4-8, 5-(4-(4-chlorophenyl)piperazine-1-carbonyl)-N-(1-(4-(trifluoromethyl)benzyl)pyrrolidin-3-yl)picolinamide]	EC50 (compounds of Table 4 (Table 9)): 1000 to 5000 nM
< 1000	COc1ccc(CN2CCC(Oc3ccc(C(=O)NC4CCN(Cc5ccccc5)CC4)cc3Cl)CC2)cc1 [5-1, N-(1-benzylpiperidin-4-yl)-3-chloro-4-(1-(4-methoxybenzyl)piperidin-4-yloxy)benzamide]	
< 1000	COc1cc(C(=O)NC2CCN(Cc3ccccc3)CC2)ccc1OC1CCN(Cc2ccccc2)CC1 [5-2, N-(1-benzylpiperidin-4-yl)-4-(1-benzylpiperidin-4-yloxy)-3-methoxybenzamide]	
1000 to 10000	O=C(NC1CCN(Cc2ccccc2)CC1)c1ccc(OC2CCN(Cc3ccco3)CC2)cc1 [5-3, N-(1-benzylpiperidin-4-yl)-4-(1-(furan-2-ylmethyl)piperidin-4-yloxy)benzamide]	
> 100000	Cn1cncc1CN1CCC(Oc2ccc(C(=O)NC3CCN(Cc4ccccc4)CC3)cc2)CC1 [5-4, N-(1-benzylpiperidin-4-yl)-4-(1-((1-methyl-1H-imidazol-5-yl)methyl)piperidin-4-yloxy)benzamide]	
50000 to 100000	Cn1cncc1CN1CCC(Oc2ccc(C(=O)NC3CCN(Cc4ccccc4)CC3)cc2Cl)CC1 [5-5, N-(1-benzylpiperidin-4-yl)-3-chloro-4-(1-((1-methyl-1H-imidazol-5-yl)methyl)piperidin-4-yloxy)benzamide]	
< 1000	O=C(NC1CCN(Cc2ccccc2)CC1)c1ccc(OC2CCN(Cc3ccncc3)CC2)c(Cl)c1 [5-6, N-(1-benzylpiperidin-4-yl)-3-chloro-4-(1-(pyridin-4-ylmethyl)piperidin-4-yloxy)benzamide]	
< 1000	COc1cc(C(=O)NC2CCN(Cc3ccccc3)CC2)ccc1OC1CCN(CCCc2ccccc2)CC1 [5-7, N-(1-benzylpiperidin-4-yl)-3-methoxy-4-(1-(3-phenylpropyl)piperidin-4-yloxy)benzamide]	

EC50 [1] [nM]	Compound	further results
1000 to 10000	COc1cc(C(=O)NC2CCN(Cc3ccccc3)CC2)ccc1OC1CCN(c2cccs2)CC1 [5-8, N-(1-benzylpiperidin-4-yl)-3-methoxy-4-(1-(thiophen-2-yl)piperidin-4-yloxy)benzamide]	
20000 to 50000	COc1cc(C(=O)NC2CCN(Cc3ccccc3)CC2)ccc1OC1CCN(S(C)(=O)=O)CC1 [5-9, N-(1-benzylpiperidin-4-yl)-3-methoxy-4-(1-(methylsulfonyl)piperidin-4-yloxy)benzamide]	
1000 to 10000	O=C(NC1CCN(Cc2ccccc2)CC1)c1ccc(OC2CCN(c3cccs3)CC2)c(Cl)c1 [5-10, N-(1-benzylpiperidin-4-yl)-3-chloro-4-(1-(thiophen-2-yl)piperidin-4-yloxy)benzamide]	
1000 to 10000	O=C(NC1CCN(Cc2ccccc2)CC1)c1ccc(OC2CCN(c3ccco3)CC2)c(Cl)c1 [5-11, N-(1-benzylpiperidin-4-yl)-3-chloro-4-(1-(furan-2-yl)piperidin-4-yloxy)benzamide]	
1000 to 10000	COc1cc(C(=O)NC2CCN(Cc3ccccc3)CC2)ccc1OC1CCN(c2ccco2)CC1 [5-12, N-(1-benzylpiperidin-4-yl)-3-methoxy-4-(1-(furan-2-yl)piperidin-4-yloxy)benzamide]	
20000 to 50000	O=C(NC1CCN(Cc2ccccc2)CC1)c1cccc(OC2CCN(Cc3ccccc3)CC2)c1 [5-13, N-(1-benzylpiperidin-4-yl)-3-(1-benzylpiperidin-4-yloxy)benzamide]	
< 1000	O=C(NC1CCN(Cc2ccccc2)CC1)c1ccc(OC2CCN(Cc3ccccc3)CC2)c(Cl)c1 [5-14, N-(1-benzylpiperidin-4-yl)-4-(1-benzylpiperidin-4-yloxy)-3-chlorobenzamide]	
< 1000	O=C(NC1CCN(Cc2ccccc2)CC1)c1ccc(OC2CCN(Cc3ccc4c(c3)OCCO4)CC2)c(Cl)c1 [5-15, N-(1-benzylpiperidin-4-yl)-3-chloro-4-(1-((2,3-dihydrobenzo[b][1,4]dioxin-6-yl)methyl)piperidin-4-yloxy)benzamide]	
< 1000	CC(C)(C)c1ccc(CN2CCC(Oc3ccc(C(=O)NC4CCN(Cc5ccccc5)CC4)cc3Cl)CC2)cc1 [5-16, N-(1-benzylpiperidin-4-yl)-4-(1-(4-tert-butylbenzyl)piperidin-4-yloxy)-3-chlorobenzamide]	
< 1000	O=C(NC1CCN(Cc2ccccc2)CC1)c1ccc(OC2CCN(c3ccc(C(F)(F)F)cc3)CC2)c(Cl)c1 [5-17, N-(1-benzylpiperidin-4-yl)-3-chloro-4-(1-(4-(trifluoromethyl)phenyl)piperidin-4-yloxy)benzamide]	
< 1000	O=C(NC1CCN(Cc2ccccc2)CC1)c1ccc(OC2CCN(C(=O)c3ccc(C(F)(F)F)cc3)CC2)c(Cl)c1 [5-18, N-(1-benzylpiperidin-4-yl)-3-chloro-4-(1-(4-(trifluoromethyl)benzoyl)piperidin-4-yloxy)benzamide]	
< 1000	O=C(NC1CCN(Cc2ccccc2)CC1)c1ccc(OC2CCN(Cc3ccc(F)cc3)CC2)c(Cl)c1 [5-19, N-(1-benzylpiperidin-4-yl)-3-chloro-4-(1-(4-fluorobenzyl)piperidin-4-yloxy)benzamide]	
< 1000	CC(C)(C)c1ccc(CN2CCC(Oc3ccc(C(=O)NC4CCN(Cc5ccccc5)CC4)cc3F)CC2)cc1 [5-20, N-(1-benzylpiperidin-4-yl)-3-fluoro-4-(1-(4-tert-butylbenzyl)piperidin-4-yloxy)benzamide]	
1000 to 10000	CC(c1ccccc1)N1CCC(Oc2ccc(C(=O)NC3CCN(Cc4ccccc4)CC3)cc2F)CC1 (centres unmarked) [5-21, N-(1-benzylpiperidin-4-yl)-3-fluoro-4-(1-(1-phenylethyl)piperidin-4-yloxy)benzamide]	
1000 to 10000	O=C(NC1CCN(Cc2ccccc2)CC1)c1ccc(OC2CCN(C(=O)c3ccc(F)cc3)CC2)c(Cl)c1 [5-22, N-(1-benzylpiperidin-4-yl)-3-chloro-4-(1-(4-fluorobenzoyl)piperidin-4-yloxy)benzamide]	
< 1000	O=C(NC1CCN(Cc2ccccc2)CC1)c1ccc(OC2CCN(c3ccc(C(F)(F)F)cc3)CC2)c(F)c1 [5-23, N-(1-benzylpiperidin-4-yl)-3-fluoro-4-(1-(4-(trifluoromethyl)phenyl)piperidin-4-yloxy)benzamide]	
10000 to 20000	O=C(NC1CCN(Cc2ccccc2)CC1)c1ccc(OC2CCN(Cc3ccccc3C(F)(F)F)CC2)c(Cl)c1 [5-24, N-(1-benzylpiperidin-4-yl)-3-chloro-4-(1-(2-(trifluoromethyl)benzyl)piperidin-4-yloxy)benzamide]	
> 100000	O=C(NC1CCN(c2ccccc2)CC1)c1ccc(OC2CCN(c3ccc(C(F)(F)F)cc3)CC2)c(F)c1 [5-25, 3-fluoro-N-(1-phenylpiperidin-4-yl)-4-(1-(4-(trifluoromethyl)phenyl)piperidin-4-yloxy)benzamide]	
< 1000	CC(C)(C)OC(=O)N1CCC(NC(=O)c2ccc(OC3CCN(c4ccc(C(F)(F)F)cc4)CC3)c(F)c2)CC1 [5-26, tert-butyl 4-(3-fluoro-4-(1-(4-(trifluoromethyl)phenyl)piperidin-4-yloxy)benzamido)piperidine-1-carboxylate]	
